Results: patent US9737514B2, “Methods and compositions for the treatment of proliferative vascular disorders” (Children's Medical Center Corporation, priority 2011, dated 2017)

Columns and labels:
[1] = tested on: HemSCs and cbEPCs in Matrigel; assay: Two cell model of IH (HemSCs and cbEPCs in Matrigel), systemic drug; assay type: in vivo, nude mice; conditions: daily intra-peritoneal injection; for vascularization of Matrigel implants / formation of blood vessels (MVD): compared with vehicle
Description: (§1) Next, the effect of systemic Rapamycin was tested in a two cell model of IH described previously (Greenberger et al., 2010). HemSCs and cbEPCs were mixed with Matrigel and injected subcutaneously in nude mice. This two-cell model has advantages over injecting HemSC alone: first it is more robust and thus more sensitive for detecting dose-response activity. Second, it allows one to test separately the effect of rapamycin on the HemSC versus cbEPCs, which are primary ECs isolated from cord blood that serve as prototypic young ECs. Rapamycin was administered daily by intra-peritoneal injection.
To test this concept, mice were given i.p. injections of low dose of dexamethasone (0.25 mg/kg), low dose of Rapamycin (0.25 mg/kg) or the combination of both.
(§2) Nude/Nude mice were purchased from Massachusetts General Hospital animal facility. Procedures were approved by the Animal Care and Use Committees of the Children's Hospital, Boston. Anesthesia was induced with 4% isofluorane and maintenance in 1-3% oxygen. Mice were anesthetized once for up to 5 min. The one cell and two cell models of IH were performed as reported (Greenberger et al., 2010; Khan et al., 2008) and microvessel density (MVD) was assessed by counting red blood cell-filled lumens (Melero-Martin et al., 2007). Values reported for each experimental condition correspond to the average MVD value±standard error of the mean (SEM) obtained from all the individual animals.
Rapamycin, Everolimus and Temsirolimus were purchased from LC Laboratories. Drugs were dissolved in DMSO followed by solvent solution (5% polyethylene glycol, 0.2% carboxymethylcellulose and 0.25% Tween-80 in H2O). Aliquots were kept in −20° C. Mice were given daily intra-peritoneal (i.p.) injections containing 200 μl of drug or the vehicle alone.

[2] = tested on: HemSCs; conditions: cited from earlier work
[3] = tested on: HemSCs; assay: Clonogenic assay (self-renewal); assay type: cell-based, human; conditions: pre-treatment 20 ng/ml 4 days, colonies at 9 days
Description: To test self-renewal capacity of HemSCs, a clonogenic assay was performed (Ingram et al., 2004).
HemSCs were incubated with Rapamycin 20 ng/ml or DMSO, as a control, for 4 days. Following washout of the drug, cells were serially diluted to 8 cells per ml and plated in 384 well plates, 40 μl/well. Medium was replaced every 48 hours. At day 9, cells were fixed and stained with Hoechst. Following image capture by automated fluorescence microscopy, colony formation and the number of cells/colony were determined by quantifying the number of wells with Hoechst-stained nuclei and the number of Hoechst-stained nuclei/well using MetaXpress Software.

[4] = tested on: HemSCs; assay: PCNA immunostaining of HemSCs; assay type: cell-based, human; conditions: 10 ng/ml
Description: (§3) Proliferating cell nuclear antigen (PCNA) served as an additional measure of proliferation (Prelich et al., 1987) (Hall and Levison, 1990).
Human-specific CD31 (DakoCytomation) immunostaining was performed as described (MeleroMartin et al., 2007), (Roelofs et al., 2003). PhosphoAKT/VE-cadherin double immunofluorescence was done on cryosections. Slides were fixed with 8% paraformaldehyde, blocked with 1% BSA and incubated with anti-VE-Cadherin (goat, Santa Cruz Biotechnology, Santa Cruz, Calif.) 1:100 for one hour, followed by anti-goat Texas-Red (Vector Labs, Burlingame, Calif.) 1:200. Following an additional blocking step (1% BSA, 0.1% Triton-X), AntipAKT (mouse, Cell Signaling, Danvers, Mass.) 1:100, was applied over night in 4° C. and next, anti-mouse Alexa Fluor 488 (Invitrogen) 1:300 for one hour. PCNA immunostaining was done using anti-PCNA 1:500 (mouse, Santa Cruz Biotechnology, Santa-Cruz, Calif.). For immunostaining of paraffing embedded Matrigel explants, antigen retrieval was done by citrate buffer. Sections were blocked by 5% horse serum and incubated with a secondary anti-mouse horseradish peroxidase (HRP) conjugate at 1:300 (Vector Labs, Burlingame, Calif.). For immunofluorescence, cells were fixed with methanol, blocked by 1% BSA.

[5] = tested on: HemSCs; assay: Endothelial differentiation of HemSCs; assay type: cell-based, human; conditions: in vitro
Description: (§6) Whether the multi-lineage differentiation of HemSCs could be altered by Rapamycin was assayed.
(§7) Differentiation assays towards endothelial cells and adipocytes were done as reported (Khan et al., 2008).

[6] = tested on: cbEPCs; assay: Two cell model of IH with cbEPCs pre-treated in vitro; assay type: in vivo, nude mice
[7] = tested on: HemSCs; assay: Two cell model of IH with HemSCs pre-treated in vitro; assay type: in vivo, nude mice
From the text: To test whether or not HemSCs are a target of Rapamycin, versus the cbEPCs or a murine host cell, HemSCs were pre-treated with Rapamycin for three days in vitro, the drug was washing out, and the Rapamycin-treated or control HemSCs were resuspended with cbEPCs in Matrigel, and injected into mice.
(§4) To do this, the anti-proliferative drug Roscovitine, a purine analogue andcyclin-dependent kinase inhibitor (De Azevedo et al., 1997) (Meijer et al., 1997) was used. First, the effect of Roscovitine on HemSCs proliferation was titrated in vitro. […] Next, HemSCs were pre-treated in vitro for three days with either Roscovitine or Rapamycin, the drugs washed out, and the cells then injected with untreated cbEPC into mice.
as §2

[8] = tested on: BM-MSCs; assay: BM-MSC proliferation dose-response; assay type: cell-based, human; conditions: FIG. 1A
Description: (§5) FIG. 1A depicts dose-response curves of HemSCs (squares), NHDF (triangles), and BM-MSCs (circles) treated with Rapamycin. Error bars denote standard deviation (SD) (n=32). FIG. 1B depicts a graph of the quantification of PCNA-positive cells in HemSCs treated with Rapamycin. Error bars denote SD (n=8). *P<0.05 compared with the non-treated group. FIG. 1C depicts the results of a Western blot for phospho4EBP-1(565) and total 4EBP-1 in HemSCs serum-starved for 24 hours, pretreated with vehicle alone (“0”) or rapamycin for 20 minutes and then stimulated with media containing serum and growth factors for 30 minutes. FIG. 1D depicts a graph of the bands in FIG. 1C quantified using ImageJ; normalized to β-actin.
as §3

[9] = tested on: HemSCs; assay: HemSC proliferation dose-response; assay type: cell-based, human
Description: as §5, §3, §4

[10] = tested on: mTOR; assay: Western blot of phosphorylated 4EBP1 in HemSCs; assay type: cell-based, human; conditions: HemSCs serum-starved 24 hours, pretreated 20 minutes
Description: as §5

[11] = tested on: normal human dermal fibroblasts (NHDF); assay: NHDF proliferation dose-response; assay type: cell-based; conditions: FIG. 1A
Description: as §5, §3

[12] = tested on: HemSCs; assay: Adipogenic differentiation of HemSCs; assay type: cell-based, human; conditions: adipogenic differentiation protocol
Description: as §6, §7

[13] = tested on: human ECs, including HemECs; assay: PLGF-1 expression in endothelial cells (ELISA, RT-PCR); assay type: cell-based; conditions: 48 hours of incubation
Description: FIG. 11C depicts a graph of quantitative ELISA analysis of PLGF-1 protein secreted from HemECs and Human Dermal Microvascular Endothelial Cells (HDMECs) following 48 hours of incubation with Rapamycin. FIG. 11D depicts a graph of the dose-response of Rapamycin on PLGF-1 mRNA expression in HemECs. Quantitative RT-PCR analyses of HemECs PLGF-1 expression following 48 hours of incubation with Rapamycin at the indicated concentration. FIG. 11E depicts a graph of the dose-response of Rapamycin on PLGF-1 protein secretion from HemECs. PLGF-1 was measured by quantitative ELISA analysis following 48 hours of incubation with Rapamycin at the indicated concentration.
(§8) An enzyme-linked immunoassay (ELISA) was performed using Quantikine Human VEGF and PLGF (R&D Systems). […]

[14] = tested on: HemSCs; assay: Pro-angiogenic cytokine expression (antibody array, ELISA, qPCR); assay type: cell-based, human
Description: To investigate whether corticosteroids and Rapamycin share common mechanisms for suppressing HemSCs-mediated vascularization, the effect of Rapamycin on expression of a panel of 43 pro-angiogenic proteins was evaluated.
Angiogenic Cytokine Antibody Array. Conditioned media from HemSCs and HemECs, treated or untreated with dexamethasone or Rapamycin, were analyzed for protein expression using RayBio® Human Angiogenesis Antibody Array C Series 1000 (RayBiotech); according to the manufacturer's instructions. Blots were analyzed by with image J software (NIH).
as §8

[15] = tested on: HemSCs in Matrigel; assay: One cell model of IH (HemSC implanted alone); assay type: in vivo, nude mice; conditions: i.p. on days 1-6, explanted day 7
Description: as §1, §2

[16] = tested on: HemSCs; assay: SMC/pericyte marker expression in HemSCs (qPCR, Western blot); assay type: cell-based, human
[17] = tested on: HemSCs and cbEPCs in Matrigel; assay: Regression of pre-existing vessels, contrast-enhanced micro-ultrasonic imaging of Matrigel implants; assay type: in vivo, nude mice; conditions: 2 mg/kg i.p.
Description: To test this, contrast-enhanced micro-ultrasonic imaging was used to measure blood flow in the Matrigel implants. […] For the experiment, mice were injected with cells and imaged at day 7 to record baseline blood flow in the implants. Mice were then randomized into two groups: Rapamycin, 2 mg/kg by i.p. injection or vehicle alone by i.p. injection. At day 17, follow-up imaging was performed.
Contrast-enhanced high resolution ultrasonic (US) imaging of the blood flow in Matrigel implants was performed using a Vevo 770 System with a 40-MHz RMV scanhead (Visual Sonics) (Loveless et al., 2009; Olive et al., 2009). MicroMarker non-targeting contrast agent (Visualsonics) was prepared according to manufacturer's guidelines. For imaging, mice were anesthetized with 2% isofluorane, coupling gel was applied to cover the entire region of interest, and 2-D B-mode scout images established the central slice of the Matrigel. The transducer was placed such that the 6 mm focal spot converged at the center of the Matrigel. Baseline images were acquired in Contrast Mode, and a 50 μL bolus of contrast agent suspension was administered via tail vein catheter during acquisition of a second contrast video.

[18] = tested on: cbEPCs; assay: Endothelial proliferation assay; assay type: cell-based, human; conditions: 20 ng/ml, 48 hours, not rescued by VEGF-A or PLGF-1
Description: FIG. 11A depicts a graph of cell number of cbEPCs treated for 48 hours with Rapamycin or (20 ng/ml) DMSO as a control, in the presence of either VEGF-A (37.5 ng/ml), PLGF-1 (37.5 ng/ml) or the combination. Cell number was quantified by automatic microscopy and software analysis. Bars denote the standard deviation with n=32 for each treatment combination. FIG. 11B depicts a graph of cell number of cbEPCs treated for 48 hours with Everolimus (20 ng/ml), Temsirolimus (200 ng/ml) or DMSO as a control, in the presence of VEGF-A (37.5 ng/ml) or PLGF-1 (37.5 ng/ml). Cell number was quantified by automatic microscopy and software analysis. Bars denote the standard deviation with n=32 for each treatment combination.
To study this effect, Rapamycin was tested on cbEPCs.
cbEPCs at passages 6-10 were plated in 384-well plates at 1000 cells per well. 24 hours later, media was removed and replaced with EBM-2 5% fetal bovine serum media containing the recombinant human proteins VEGF-A at 37.5 ng/ml (R&D Systems) or PlGF-1 at 37.5 ng/ml (R&D Systems), and the drug compounds Rapamycin (20 ng/ml), Everolimus 20 ng/ml or Temsirolimus 200 ng/ml in replicates of 32. 48 hours later, cells were fixed and stained with Hoechst (Invitrogen). Following image capture by automated fluorescence microscopy, cell number was determined using MetaXpress Software.

[19] = tested on: HemSC; assay: Calcium influx assay by fluorescence microscopy; assay type: cell-based, human
Description: FIG. 10B depicts graphs of the effect of nifedipine on spontaneous Ca^2+ oscillations in HemSC treated with Rapamycin or DMSO for 6 days. Each line indicates the whole-cell Ca^2+ changes in an individual cell.
To test for functional features of SMCs, calcium influx in HemSC treated with Rapamycin or DMSO for six days was analyzed.
To monitor cellular calcium influxes, HemSC treated with Rapamycin (20 ng/ml) or DMSO for six days were labeled with a single wavelength calcium dye, Fluo-4 (1 Molecular Probes), by incubation in 5% CO2 at 37° C. for 20 min. […] Fluorescence intensity at a single wavelength (488 nm excitation) over time was followed using a Nikon Eclipse TE-2000-E Fluorescence microscope equipped with a 1000 W High Pressure Mercury Burner (Olympus Optical Company). Alterations in intracellular calcium were quantified by measuring changes in fluorescence intensity in a region of interest drawn over the entire cell including the nucleus. Background fluorescence was subtracted from fluorescence values at each time point. Results are presented as F/Fo, where F is the average fluorescence intensity in the region of interest (ROI) at each time point during time lapse imaging, and Fo is the fluorescence intensity in the ROI at time=0. […]

[20] = tested on: HemSCs; assay: Viability / cell morphology by phalloidin staining; assay type: cell-based, human

CO[C@H]1C[C@@H]2CC[C@@H](C)[C@@](O)(O2)C(=O)C(=O)N2CCCC[C@H]2C(=O)O[C@H]([C@H](C)C[C@@H]2CC[C@@H](OC(=O)C(C)(CO)CO)[C@H](OC)C2)CC(=O)[C@H](C)/C=C(\C)[C@@H](O)[C@@H](OC)C(=O)[C@H](C)C[C@H](C)/C=C/C=C/C=C/1C [temsirolimus]
vascularization of Matrigel implants / formation of blood vessels (MVD) [1]: significantly inhibited

C[C@@H]1C[C@H]2[C@@H]3CCC4=CC(=O)C=C[C@]4(C)[C@@]3(F)[C@@H](O)C[C@]2(C)[C@@]1(O)C(=O)CO [Dexamethasone, dexamethasone]
VEGF-A, IL-6, MMP-1, MCP-1 and UPAR expression [2]: suppressed

CO[C@H]1C[C@@H]2CC[C@@H](C)[C@@](O)(O2)C(=O)C(=O)N2CCCC[C@H]2C(=O)O[C@H]([C@H](C)C[C@@H]2CC[C@@H](OCCO)[C@H](OC)C2)CC(=O)[C@H](C)/C=C(\C)[C@@H](O)[C@@H](OC)C(=O)[C@H](C)C[C@H](C)/C=C/C=C/C=C/1C [everolimus]
vascularization of Matrigel implants / formation of blood vessels (MVD) [1]: significantly inhibited

CO[C@H]1C[C@@H]2CC[C@@H](C)[C@@](O)(O2)C(=O)C(=O)N2CCCC[C@H]2C(=O)O[C@H]([C@H](C)C[C@@H]2CC[C@@H](O)[C@H](OC)C2)CC(=O)[C@H](C)/C=C(\C)[C@@H](O)[C@@H](OC)C(=O)[C@H](C)C[C@H](C)/C=C/C=C/C=C/1C [Rapamycin, rapamycin]
appearance of colonies with >500 cells [3]: abolished
decrease in the number of HemSC colonies formed [3]: 60%
suppression of percentage of PCNA-positive HemSCs [4]: 80%
ability of HemSCs to differentiate towards an endothelial phenotype [5]: No effect
de novo formation of human CD31-positive blood vessels ([1]; anti-human CD31 staining): inhibited the de novo formation
vascularization of Matrigel implants / formation of blood vessels (MVD) [1]: dose-dependent inhibition
blood vessel formation after pre-treatment of cbEPCs [6]: no effect
inhibition of microvessel density ([7]; HemSCs pre-treated in vitro three days, washed out, injected with untreated cbEPC (Roscovitine comparison experiment)): 60%
inhibition of blood vessel formation ([7]; HemSCs pre-treated three days in vitro, drug washed out, injected with cbEPCs): 80%
sensitivity of BM-MSCs proliferation compared with HemSCs [8]: less sensitive
inhibition of HemSCs proliferation ([9]; concentrations of 1 ng/ml and higher): ~40%
constitutive and serum/growth factor stimulated levels of phosphorylated 4EBP1 [10]: dose-dependent decrease
sensitivity of NHDF proliferation compared with HemSCs [11]: less sensitive
expression of adipogenic markers LPL, C/EBP-α and accumulation of lipid droplets [12]: blocked expression
endogenous PLGF-1 [13]: dose-dependent suppression
expression of VEGF-A by HemSCs at the mRNA or protein level [14]: did not block
angiogenin and PLGF-1 expression ([14]; in HemSCs and cbEPCs): downregulated
vessel formation, HemSC implanted alone [15]: inhibited vessel formation
expression levels of calponin, NG2 and PDGF-Rβ ([16]; FIG. 10A): unchanged
SM22-alpha and αSMA at the protein level ([16]; incubation four days): increased
smMHC and SM22-alpha transcript levels ([16]; incubation four days): upregulation
vascularization of Matrigel implants macroscopically and by histological analysis [17]: less vascularized
blood flow in the implant (contrast intensity) ([17]; day 7 to day 17): reduced blood flow
growth of cbEPCs [18]: suppressed growth
functional features of SMCs (calcium influx) ([19]; HemSC treated 20 ng/ml six days): express L-type voltage gated channels
viability (normal cell morphology, phalloidin staining) [20]: not affected

COC(=O)C1=C(C)NC(C)=C(C(=O)OC)C1c1ccccc1[N+](=O)[O-] [Nifedipine, nifedipine]
spontaneous Ca2+ oscillations ([19]; 10 uM, Rapamycin-treated HemSC): cessation of oscillations

CC[C@H](CO)Nc1nc(NCc2ccccc2)c2ncn(C(C)C)c2n1 [Roscovitine]
inhibition of microvessel density (in words) ([7]; HemSCs pre-treated in vitro three days, washed out, injected with untreated cbEPC): did not
inhibition at 3.125 µM ([9]; Homo sapiens, read-out: inhibition of HemSCs proliferation): 55%
